Assay results reported in patent publication US8993602B2, “Benzoic acid salt of otamixaban” (Sanofi, priority 2011, dated 2015).
Like-named read-outs stand apart in the source and are kept apart here.

Assays:
factor Xa = biological target: T1, factor Xa (Homo sapiens, UniProt P00742); conditions: patients with stable coronary artery disease on usual comedication, some with mild renal impairment; cited from earlier work
T1 construct: from tissue; host or cells: blood of patients (in vivo; result quoted from Hinder et al. 2006)
T1 sequence (P00742 235-488 limits assumed): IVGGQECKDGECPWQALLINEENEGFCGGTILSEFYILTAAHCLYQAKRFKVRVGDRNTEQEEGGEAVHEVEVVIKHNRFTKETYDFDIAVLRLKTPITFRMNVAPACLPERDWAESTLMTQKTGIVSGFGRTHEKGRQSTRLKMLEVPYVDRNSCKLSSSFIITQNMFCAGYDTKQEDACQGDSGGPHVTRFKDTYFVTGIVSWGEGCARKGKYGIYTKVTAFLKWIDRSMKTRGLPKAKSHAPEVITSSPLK
T1 sequence (P00742 41-179 partner limits assumed): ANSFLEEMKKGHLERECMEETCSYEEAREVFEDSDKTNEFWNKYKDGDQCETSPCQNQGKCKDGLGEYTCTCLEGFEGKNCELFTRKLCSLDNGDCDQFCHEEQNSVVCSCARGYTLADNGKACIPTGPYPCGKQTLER

acute coronary syndrome = conditions: humans, recent clinical findings; cited from earlier work
[1] = test system: prothrombin fragments 1+2; conditions: highest dose regimen, versus unfractionated heparin; cited from earlier work
[2] = biological target: factor Xa assembled in the prothrombinase complex (Factor Xa, Factor Va, calcium and phospholipid) (Homo sapiens, UniProt P00742); conditions: cited from earlier work
Sequence of factor Xa assembled in the prothrombinase complex (Factor Xa, Factor Va, calcium and phospholipid) (P00742 235-488 limits assumed): as the sequence (P00742 235-488 limits assumed) above
Sequence of factor Xa assembled in the prothrombinase complex (Factor Xa, Factor Va, calcium and phospholipid) (P00742 41-179 partner limits assumed): as the sequence (P00742 41-179 partner limits assumed) above
Sequence of factor Xa assembled in the prothrombinase complex (Factor Xa, Factor Va, calcium and phospholipid) (P12259 29-737 partner limits assumed): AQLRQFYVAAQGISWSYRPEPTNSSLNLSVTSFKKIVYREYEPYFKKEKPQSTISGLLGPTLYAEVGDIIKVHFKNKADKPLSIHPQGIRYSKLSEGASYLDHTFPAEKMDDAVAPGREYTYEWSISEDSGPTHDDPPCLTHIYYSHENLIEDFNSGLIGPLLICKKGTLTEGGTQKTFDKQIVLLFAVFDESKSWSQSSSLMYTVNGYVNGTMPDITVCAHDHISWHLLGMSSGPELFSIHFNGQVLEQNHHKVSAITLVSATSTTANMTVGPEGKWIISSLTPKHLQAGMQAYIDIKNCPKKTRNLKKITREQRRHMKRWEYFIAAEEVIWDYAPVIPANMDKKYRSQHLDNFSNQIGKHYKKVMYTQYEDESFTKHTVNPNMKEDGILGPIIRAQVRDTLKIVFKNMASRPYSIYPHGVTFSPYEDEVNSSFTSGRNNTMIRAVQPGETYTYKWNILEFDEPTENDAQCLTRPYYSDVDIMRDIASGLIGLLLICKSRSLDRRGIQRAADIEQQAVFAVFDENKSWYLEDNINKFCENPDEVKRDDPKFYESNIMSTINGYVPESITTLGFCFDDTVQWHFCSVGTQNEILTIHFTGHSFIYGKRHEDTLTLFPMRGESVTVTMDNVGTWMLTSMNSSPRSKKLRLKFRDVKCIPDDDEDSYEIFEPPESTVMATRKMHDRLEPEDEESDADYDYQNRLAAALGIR
Sequence of factor Xa assembled in the prothrombinase complex (Factor Xa, Factor Va, calcium and phospholipid) (P12259 1574-2224 partner limits assumed): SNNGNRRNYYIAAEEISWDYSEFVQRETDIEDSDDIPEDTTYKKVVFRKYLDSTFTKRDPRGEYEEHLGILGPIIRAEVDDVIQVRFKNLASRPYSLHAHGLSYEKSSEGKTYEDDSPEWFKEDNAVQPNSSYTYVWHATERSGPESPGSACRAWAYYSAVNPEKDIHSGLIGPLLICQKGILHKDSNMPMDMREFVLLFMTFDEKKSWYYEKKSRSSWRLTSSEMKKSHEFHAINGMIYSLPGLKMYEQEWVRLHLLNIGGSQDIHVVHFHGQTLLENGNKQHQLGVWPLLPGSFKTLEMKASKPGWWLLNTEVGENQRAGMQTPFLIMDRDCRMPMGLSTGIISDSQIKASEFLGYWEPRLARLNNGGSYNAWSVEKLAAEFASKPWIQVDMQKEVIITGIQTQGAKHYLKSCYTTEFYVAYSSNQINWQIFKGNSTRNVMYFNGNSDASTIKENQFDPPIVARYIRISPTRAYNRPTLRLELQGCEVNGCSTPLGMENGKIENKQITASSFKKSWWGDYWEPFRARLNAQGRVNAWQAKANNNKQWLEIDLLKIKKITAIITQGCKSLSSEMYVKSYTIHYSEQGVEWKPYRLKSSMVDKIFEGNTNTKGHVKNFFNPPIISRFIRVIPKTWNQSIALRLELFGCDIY

models of thrombosis = conditions: rodent, canine and porcine models; cited from earlier work
free factor Xa = free factor Xa (Homo sapiens, UniProt P00742); conditions: cited from earlier work
Sequence of free factor Xa (P00742 235-488 limits assumed): as the sequence (P00742 235-488 limits assumed) above
Sequence of free factor Xa (P00742 41-179 partner limits assumed): as the sequence (P00742 41-179 partner limits assumed) above

[3] = for hygroscopicity (absorption or adsorption of water molecules from the surrounding environment): result in words
Description: Moreover, crystalline benzoic acid salt of Formula I may also be characterized by its dynamic vapor sorption (DVS) water vapor sorption and desorption isotherms measured at 25° C. Before starting the sorption cycle the crystalline salt of Formula I sample is treated with dry nitrogen gas.
Moisture sorption/desorption isotherms were recorded on a DVS-1000 from Surface Measurement Systems. […] Typical total measurement times for both cycles were about 20 to 30 hours.

## COC(=O)[C@H](Cc1cccc(C(=N)N)c1)[C@@H](C)NC(=O)c1ccc(-c2cc[n+]([O-])cc2)cc1 (mixture of isomers) [Otamixaban, Methyl(2R,3R)-2-{3-[amino(imino)methyl]benzyl}-3-{[4-(1-oxidopyridin-4-yl)benzoyl]amino}butanoate]
Factor Xa
  factor Xa inhibition in patients: dose-dependent, rapid direct factor Xa inhibition
Acute coronary syndrome
  clinical efficacy: efficacious
  clinical safety and tolerability: safe and well tolerated
[1]
  reduction of prothrombin fragments 1+2: reduced prothrombin fragments 1+2 significantly more than unfractionated heparin
[2]
  inhibition of factor Xa assembled in the prothrombinase complex: inhibited
Models of thrombosis
  efficacy in models of thrombosis: highly efficacious
Free factor Xa
  inhibition of free factor Xa: inhibited

## CCC(C)O.COC(=O)[C@H](Cc1cccc(C(=N)N)c1)[C@@H](C)NC(=O)c1ccc(-c2cc[n+]([O-])cc2)cc1.COC(=O)[C@H](Cc1cccc(C(=N)N)c1)[C@@H](C)NC(=O)c1ccc(-c2cc[n+]([O-])cc2)cc1.Cl.Cl [Methyl(2R,3R)-2-{3-[amino(imino)methyl]benzyl}-3-{[4-(1-oxidopyridin-4-yl)benzoyl]amino}butanoate monohydrochloride-hemi-2-butanol-solvate]
[3]; Cycle 1, Target RH 0.0%
  Change In Mass (%) Desorption: 0.35%
  Change In Mass (%) Sorption: 0.00%
[3]; Cycle 1, Target RH 10.0%
  Change In Mass (%) Desorption: 3.33%
  Change In Mass (%) Hysteresis: 2.54%
  Change In Mass (%) Sorption: 0.79%
[3]; Cycle 1, Target RH 20.0%
  Change In Mass (%) Desorption: 5.29%
  Change In Mass (%) Hysteresis: 4.01%
  Change In Mass (%) Sorption: 1.28%
[3]; Cycle 1, Target RH 40.0%
  Change In Mass (%) Desorption: 7.14%
  Change In Mass (%) Hysteresis: 4.91%
  Change In Mass (%) Sorption: 2.22%
[3]; Cycle 1, Target RH 60.0%
  Change In Mass (%) Desorption: 9.78%
  Change In Mass (%) Hysteresis: 6.09%
  Change In Mass (%) Sorption: 3.69%
[3]; Cycle 1, Target RH 80.0%
  Change In Mass (%) Desorption: 16.92%
  Change In Mass (%) Hysteresis: −0.87%
  Change In Mass (%) Sorption: 17.79%
[3]; Cycle 1, Target RH 90.0%
  Change In Mass (%) Desorption: 26.07%
  Change In Mass (%) Hysteresis: −0.59%
  Change In Mass (%) Sorption: 26.66%
[3]; Cycle 1, Target RH 95.0%
  Change In Mass (%) Desorption: 34.13%
  Change In Mass (%) Sorption: 34.13%
[3]; Cycle 2, Target RH 0.0%
  Change In Mass (%) Desorption: 0.34%
  Change In Mass (%) Sorption: 0.35%
[3]; Cycle 2, Target RH 10.0%
  Change In Mass (%) Desorption: 3.17%
  Change In Mass (%) Hysteresis: 2.48%
  Change In Mass (%) Sorption: 0.69%
[3]; Cycle 2, Target RH 20.0%
  Change In Mass (%) Desorption: 4.97%
  Change In Mass (%) Hysteresis: 3.65%
  Change In Mass (%) Sorption: 1.32%
[3]; Cycle 2, Target RH 40.0%
  Change In Mass (%) Desorption: 6.78%
  Change In Mass (%) Hysteresis: 4.11%
  Change In Mass (%) Sorption: 2.67%
[3]; Cycle 2, Target RH 60.0%
  Change In Mass (%) Desorption: 9.41%
  Change In Mass (%) Hysteresis: 4.84%
  Change In Mass (%) Sorption: 4.57%
[3]; Cycle 2, Target RH 80.0%
  Change In Mass (%) Desorption: 16.37%
  Change In Mass (%) Hysteresis: 2.94%
  Change In Mass (%) Sorption: 13.43%
[3]; Cycle 2, Target RH 90.0%
  Change In Mass (%) Desorption: 25.32%
  Change In Mass (%) Hysteresis: 1.41%
  Change In Mass (%) Sorption: 23.91%
[3]; Cycle 2, Target RH 95.0%
  Change In Mass (%) Desorption: 32.86%
  Change In Mass (%) Sorption: 32.86%
[3]
  hygroscopicity (absorption or adsorption of water molecules from the surrounding environment): hygroscopic

## COC(=O)[C@H](Cc1cccc(C(=N)N)c1)[C@@H](C)NC(=O)c1ccc(-c2cc[n+]([O-])cc2)cc1.O=C(O)c1ccccc1 [benzoic acid salt of methyl(2R,3R)-2-{3-[amino(imino)methyl]benzyl}-3-{[4-(1-oxidopyridin-4-yl)benzoyl]amino}butanoate]
[3]; Cycle 1, Target RH 0.0%
  Change In Mass (%) Desorption: −0.035%
  Change In Mass (%) Sorption: 0.000%
[3]; Cycle 1, Target RH 10.0%
  Change In Mass (%) Desorption: 0.215%
  Change In Mass (%) Hysteresis: 0.119%
  Change In Mass (%) Sorption: 0.096%
[3]; Cycle 1, Target RH 20.0%
  Change In Mass (%) Desorption: 0.326%
  Change In Mass (%) Hysteresis: 0.146%
  Change In Mass (%) Sorption: 0.180%
[3]; Cycle 1, Target RH 40.0%
  Change In Mass (%) Desorption: 0.534%
  Change In Mass (%) Hysteresis: 0.172%
  Change In Mass (%) Sorption: 0.363%
[3]; Cycle 1, Target RH 60.0%
  Change In Mass (%) Desorption: 0.810%
  Change In Mass (%) Hysteresis: 0.214%
  Change In Mass (%) Sorption: 0.596%
[3]; Cycle 1, Target RH 80.0%
  Change In Mass (%) Desorption: 1.300%
  Change In Mass (%) Hysteresis: 0.374%
  Change In Mass (%) Sorption: 0.926%
[3]; Cycle 1, Target RH 90.0%
  Change In Mass (%) Desorption: 1.697%
  Change In Mass (%) Hysteresis: 0.290%
  Change In Mass (%) Sorption: 1.408%
[3]; Cycle 1, Target RH 95.0%
  Change In Mass (%) Desorption: 2.031%
  Change In Mass (%) Sorption: 2.031%
[3]; Cycle 2, Target RH 0.0%
  Change In Mass (%) Desorption: −0.056%
  Change In Mass (%) Sorption: −0.035%
[3]; Cycle 2, Target RH 10.0%
  Change In Mass (%) Desorption: 0.198%
  Change In Mass (%) Hysteresis: 0.089%
  Change In Mass (%) Sorption: 0.109%
[3]; Cycle 2, Target RH 20.0%
  Change In Mass (%) Desorption: 0.310%
  Change In Mass (%) Hysteresis: 0.084%
  Change In Mass (%) Sorption: 0.226%
[3]; Cycle 2, Target RH 40.0%
  Change In Mass (%) Desorption: 0.523%
  Change In Mass (%) Hysteresis: 0.062%
  Change In Mass (%) Sorption: 0.461%
[3]; Cycle 2, Target RH 60.0%
  Change In Mass (%) Desorption: 0.800%
  Change In Mass (%) Hysteresis: 0.058%
  Change In Mass (%) Sorption: 0.742%
[3]; Cycle 2, Target RH 80.0%
  Change In Mass (%) Desorption: 1.299%
  Change In Mass (%) Hysteresis: 0.058%
  Change In Mass (%) Sorption: 1.241%
[3]; Cycle 2, Target RH 90.0%
  Change In Mass (%) Desorption: 1.687%
  Change In Mass (%) Hysteresis: 0.071%
  Change In Mass (%) Sorption: 1.616%
[3]; Cycle 2, Target RH 95.0%
  Change In Mass (%) Desorption: 1.999%
  Change In Mass (%) Sorption: 1.999%
[3]; at 80% RH
  water uptake (DVS): 1.1%
[3]; at 95% RH
  water uptake (DVS): 2.0%
[3]
  hygroscopicity (absorption or adsorption of water molecules from the surrounding environment): favorable reduced absorption or adsorption of water molecules
